Tests used:
[1] = molecular target: Cyclin-dependent kinase 1 (Homo sapiens, UniProt P06493); assay type: cell-based; settings: ht-29
Description: Inhibition of human Cdc2 kinase PY15 phosphorylation in HT29 cells by Western blot

[2] = molecular target: Wee1-like protein kinase (Homo sapiens, UniProt P30291)
[3] = test system: HT-29; assay: cells; assay type: cell-based; settings: Homo sapiens
Description: Inhibition of human Cdc2/cyclin B-mediated histone H1 kinase phosphorylation in HT29 cells

[4] = physchem
Description: Dissociation constant, pKa of the compound

[5] = test system: HT-29; assay: cells; assay type: functional, cell-based; settings: Homo sapiens, HT-29, 72 h
Description: Cytotoxicity against human HT29 cells after 72 hrs

[6] = physchem; settings: buffer
Description: Aqueous solubility in water

[7] = molecular target: T1, Serine/threonine-protein kinase Chk1 (Homo sapiens, UniProt O14757)
T1 sequence (O14757 whole entry): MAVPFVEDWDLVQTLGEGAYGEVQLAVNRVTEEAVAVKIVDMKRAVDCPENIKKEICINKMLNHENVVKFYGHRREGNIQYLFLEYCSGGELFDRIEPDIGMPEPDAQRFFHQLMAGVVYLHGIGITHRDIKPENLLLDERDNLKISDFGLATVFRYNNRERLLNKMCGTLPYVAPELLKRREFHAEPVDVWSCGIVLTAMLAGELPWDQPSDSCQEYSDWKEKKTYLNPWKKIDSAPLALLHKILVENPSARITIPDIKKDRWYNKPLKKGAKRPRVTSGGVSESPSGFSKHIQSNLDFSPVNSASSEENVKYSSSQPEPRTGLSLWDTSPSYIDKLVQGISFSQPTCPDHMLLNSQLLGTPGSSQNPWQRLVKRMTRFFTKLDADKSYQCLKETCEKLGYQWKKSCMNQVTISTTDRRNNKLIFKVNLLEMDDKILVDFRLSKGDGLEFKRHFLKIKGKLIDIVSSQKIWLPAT

Chain of Cyclin-dependent kinase 1 (P06493 whole entry): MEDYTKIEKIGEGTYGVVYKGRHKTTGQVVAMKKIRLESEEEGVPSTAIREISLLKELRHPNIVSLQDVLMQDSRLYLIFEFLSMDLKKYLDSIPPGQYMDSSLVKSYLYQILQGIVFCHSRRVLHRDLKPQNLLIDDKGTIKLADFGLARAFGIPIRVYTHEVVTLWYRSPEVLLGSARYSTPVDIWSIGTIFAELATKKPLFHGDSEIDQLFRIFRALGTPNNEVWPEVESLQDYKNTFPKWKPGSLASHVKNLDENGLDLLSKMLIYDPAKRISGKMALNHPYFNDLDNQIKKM
Chain of Wee1-like protein kinase (P30291 whole entry): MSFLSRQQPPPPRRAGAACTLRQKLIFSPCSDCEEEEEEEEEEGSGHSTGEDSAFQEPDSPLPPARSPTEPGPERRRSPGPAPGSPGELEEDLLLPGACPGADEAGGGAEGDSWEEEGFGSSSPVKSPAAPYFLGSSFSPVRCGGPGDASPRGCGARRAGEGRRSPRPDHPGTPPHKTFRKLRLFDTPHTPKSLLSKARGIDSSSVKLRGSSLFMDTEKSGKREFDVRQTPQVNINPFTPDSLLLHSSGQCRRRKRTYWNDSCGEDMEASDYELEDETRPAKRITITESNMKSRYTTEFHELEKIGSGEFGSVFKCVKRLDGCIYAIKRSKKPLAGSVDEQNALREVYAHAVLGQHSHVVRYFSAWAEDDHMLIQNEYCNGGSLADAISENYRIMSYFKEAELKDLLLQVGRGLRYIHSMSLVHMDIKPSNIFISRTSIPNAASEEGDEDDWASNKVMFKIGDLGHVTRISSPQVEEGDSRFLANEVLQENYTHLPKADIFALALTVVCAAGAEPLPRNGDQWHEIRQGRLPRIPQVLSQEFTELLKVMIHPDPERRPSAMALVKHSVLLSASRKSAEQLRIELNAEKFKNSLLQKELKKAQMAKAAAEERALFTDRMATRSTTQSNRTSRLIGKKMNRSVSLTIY

| IC50 [1] [nM] | IC50 [2] [nM] | IC50 [3] [nM] | pKa [4] | IC50 [5] [nM] | solubility [6] [µg/mL] | IC50 [7] [nM] | Compound |
| --- | --- | --- | --- | --- | --- | --- | --- |
| 10 | – | – | 9.5 | 230 | – | – | CN(C)CCCOc1cc2c(cc1O)c1c3c(c(-c4ccccc4Cl)cc1n2C)C(=O)NC3=O |
| 30 | 24 | 860 | 10.5 | – | – | – | O=C1NC(=O)c2c1c(-c1ccccc1Cl)cc1c2c2cc(O)c(OCCCN3CCCC3)cc2n1CCO |
| – | 20 | – | 10.5 | – | – | – | Cn1c2cc(SCCCN3CCCC3)c(O)cc2c2c3c(c(-c4ccccc4Cl)cc21)C(=O)NC3=O |
| – | 36 | – | 10.5 | – | – | – | Cn1c2cc(CCCCN3CCCC3)c(O)cc2c2c3c(c(-c4ccccc4Cl)cc21)C(=O)NC3=O |
| 200 | 50 | 780 | 10.5 | – | – | – | O=C1NC(=O)c2c1c(-c1ccccc1Cl)cc1[nH]c3cc(CCCCN4CCCC4)c(O)cc3c21 |
| 250 | – | – | – | – | < 3 | – | O=C1NC(=O)c2c1c(-c1ccccc1Cl)cc1c2c2cc(O)ccc2n1CCCO |
| – | 46 | – | 10.5 | – | – | – | Cn1c2cc(S(=O)(=O)NCCN3CCCC3)c(O)cc2c2c3c(c(-c4ccccc4Cl)cc21)C(=O)NC3=O |
| – | 33 | – | 10.5 | – | – | 7 | Cn1c2cc([S+]([O-])CCCN3CCCC3)c(O)cc2c2c3c(c(-c4ccccc4Cl)cc21)C(=O)NC3=O (configuration not stated) |
| – | – | – | – | – | 2200 | – | CN(C)CCCOc1cc2c(cc1O)c1c3c(c(-c4ccccc4Cl)cc1n2C)C(=O)NC3=O.Cl |
| 30 | – | 230 | 10.5 | 310 | – | – | Cn1c2cc(OCCCN3CCCC3)c(O)cc2c2c3c(c(-c4ccccc4Cl)cc21)C(=O)NC3=O |
| 250 | 18 | 750 | 9.5 | – | – | – | CN(C)CCCOc1cc2c(cc1O)c1c3c(c(-c4ccccc4Cl)cc1n2CCO)C(=O)NC3=O |
| – | 24 | – | 10.5 | – | – | – | O=C1NC(=O)c2c1c(-c1ccccc1Cl)cc1c2c2cc(O)c(CCCCN3CCCC3)cc2n1CCO |
| – | 35 | – | 10.5 | – | – | – | O=C1NC(=O)c2c1c(-c1ccccc1Cl)cc1[nH]c3cc(OCCCN4CCCC4)c(O)cc3c21 |
| – | 160 | – | 10.5 | – | – | – | Cn1c2cc(S(=O)(=O)CCCN3CCCC3)c(O)cc2c2c3c(c(-c4ccccc4Cl)cc21)C(=O)NC3=O |
| – | – | – | 10.5 | – | – | – | Cn1c2cc(C(=O)NCCN3CCCC3)c(O)cc2c2c3c(c(-c4ccccc4Cl)cc21)C(=O)NC3=O |

| Compound | IC50 [1] [nM] | IC50 [2] [nM] | IC50 [3] [nM] | pKa [4] | IC50 [5] [nM] | solubility [6] [µg/mL] | IC50 [7] [nM] |
| --- | --- | --- | --- | --- | --- | --- | --- |
| O=C1NC(=O)c2c1c(-c1ccccc1Cl)cc1c2c2cc(O)c(OCCCN3CCOCC3)cc2n1CCO | 250 | 15 | 530 | 7.8 | – | – | – |
| Cn1c2cc(CCCCN3CCOCC3)c(O)cc2c2c3c(c(-c4ccccc4Cl)cc21)C(=O)NC3=O | – | 30 | – | 7.8 | – | – | – |
| Cn1c2cc(OCCCN3CCOCC3)c(O)cc2c2c3c(c(-c4ccccc4Cl)cc21)C(=O)NC3=O | – | 57 | – | 7.8 | – | – | – |
| CN(C)CCCCc1cc2c(cc1O)c1c3c(c(-c4ccccc4Cl)cc1n2C)C(=O)NC3=O | – | 34 | – | 9.5 | – | – | – |
| CN(C)CCCOc1cc2[nH]c3cc(-c4ccccc4Cl)c4c(c3c2cc1O)C(=O)NC4=O | – | 26 | – | 9.5 | – | – | – |
| CN(C)CCCCc1cc2[nH]c3cc(-c4ccccc4Cl)c4c(c3c2cc1O)C(=O)NC4=O | 250 | 49 | 880 | 9.5 | – | – | – |
| O=C1NC(=O)c2c1c(-c1ccccc1Cl)cc1c2c2cc(O)c(CCCCN3CCOCC3)cc2n1CCO | – | 19 | – | 7.8 | – | – | – |
| O=C1NC(=O)c2c1c(-c1ccccc1Cl)cc1[nH]c3cc(OCCCN4CCOCC4)c(O)cc3c21 | – | 26 | – | 7.8 | – | – | – |
| O=C1NC(=O)c2c1c(-c1ccccc1Cl)cc1[nH]c3cc(CCCCN4CCOCC4)c(O)cc3c21 | 250 | 37 | 1230 | 7.8 | – | – | – |

Reference: ChEMBL document CHEMBL1143190, “Synthesis and structure-activity relationships of soluble 8-substituted 4-(2-chlorophenyl)-9-hydroxypyrrolo[3,4-c]carbazole-1,3(2H,6H)-diones as inhibitors of the Wee1 and Chk1 checkpoint kinases” (Bioorg Med Chem Lett, 2008)
